Measured values reported in patent US12427134B2, “Methods of reducing the risk of cardiovascular events in a subject with atrial fibrillation and/or atrial flutter” (priority 2019, dated 2025).

Test system: hypertriglyceridemic patients with cardiovascular disease or at high risk for cardiovascular disease
Assay: REDUCE-IT: clinical laboratory evaluation (hematology, liver function tests, clinical chemistry, drug-induced liver injury)
Type: in vivo, human
Protocol: Clinical Laboratory Procedures and Evaluations: All clinical laboratory determinations for screening and safety were performed by a certified clinical laboratory under the supervision of the Sponsor or its designee. Whenever possible and appropriate, samples for the clinical laboratory procedures were collected after fasting for at least 10 hours. For the purposes of this study, fasting was defined as nothing by mouth except water (and any essential medications). The investigator reviewed and signed all laboratory test reports. At screening, patients who had laboratory values that are outside the exclusionary limits specified in the exclusion criteria were not enrolled in the study (patients would have been considered for the study if values were classified as not clinically significant by the investigator). After randomization, the investigator was notified if laboratory values were outside of their normal range. In this case, the investigator was required to conduct clinically appropriate follow-up procedures.
Safety Laboratory Tests: The safety parameters were analyzed by a certified clinical laboratory at screening (Visit 1 or Visit 1.1), Randomization visit (Visit 2; Day 0), Visit 3 (Day 120; −4 Months) and all other follow-up visits including the Last Visit. The safety laboratory tests included: • Hematology with complete blood count (CBC), including RBC, hemoglobin (Hgb), hematocrit (Hct), white cell blood count (WBC), white cell differential, and platelet count; and • Biochemistry panel including total protein, albumin, alkaline phosphatase, alanine am inotransferase (ALT/SGPT), aspartate am inotransferase (AST/SGOT), total bilirubin, glucose, calcium, electrolytes (sodium, potassium, chloride), blood urea nitrogen (BUN), serum creatinine, uric acid, creatine kinase, and HbA1c.
Each laboratory result was classified as low (L), normal (N), and high (H) at each visit according to the laboratory-supplied normal range. The shift from baseline was presented for each post-baseline visit and overall post-baseline visits. If multiple measurements for a test parameter were available for a post-baseline patient-visit, the most extreme value was included in the shift table. For shift from baseline to overall post-baseline visits, values from all visits (including unscheduled measurements) were included. The chemistry shift table included fasting lipid parameters. The continuous lipid values were presented as part of the efficacy analysis.
A treatment-emergent PCS high value at any time was defined as a change from a value less than or equal to the upper reference limit at baseline to a PCS high value at any post-baseline measurement. A treatment-emergent PCS low value at any time was defined as a change from a value greater than or equal to the lower reference limit at baseline to a PCS low value at any post-baseline measurement. Number (%) of patients with any post-baseline PCS laboratory values was summarized by treatment group. A listing of patients with PCS laboratory values at any time, i.e., baseline or at any post-baseline visit, were included.
DILI cases were investigated through the following analyses: • A graph of distribution of peak values of alanine aminotransferase (ALT) versus peak values of total bilirubin (TBL) during the treatment period was prepared, using a logarithmic scale. In the graph, for each patient, the peak TBL times the Upper Limit of Normal (ULN) were plotted against the peak ALT times the ULN, where the peak TBL and peak ALT may or may not have happened on the same day of liver testing. The graph was divided into 4 quadrants with a vertical line corresponding to 3×ULN for ALT and a horizontal line corresponding to 2×ULN for TBL. […]

[1] = Baseline (Visit 2), Safety population
[2] = Visit 9 (n = 8), Safety population
[3] = Visit 9 (only 8 patients had data)
[4] = any post-baseline visit, 3975 patients with data
[5] = any post-baseline visit, 3977 patients with data

Compound: CC/C=C\C/C=C\C/C=C\C/C=C\C/C=C\CCCC(=O)OCC [AMR101, eicosapentaenoic acid ethyl ester]
- ALT, mean baseline value [1]: 27.72 U/L
- AST, mean baseline value [1]: 24.47 U/L
- Hemoglobin, mean baseline value [1]: 141.16 g/L
- Platelet Count, mean baseline value [1]: 2.4301e+11 L⁻¹
- ALT, mean change from baseline (Last Visit, Safety population): −2.33 U/L
- AST, mean change from baseline (Last Visit, Safety population): −1.25 U/L
- Hemoglobin, mean change from baseline (Last Visit, Safety population): -1.12 g/L
- Platelet Count, mean change from baseline (Last Visit, Safety population): -5.52e+09 L⁻¹
- Increase of 3×ULN in ALT or AST and increase of 2×ULN in total bilirubin, patients (Safety population): one patient
- Increase of 3×ULN in ALT or AST, increase of 2×ULN in total bilirubin, and alkaline phosphatase ≤2×ULN, patients (Safety population): one patient
- Individual study drug-related hematology and clinical chemistry TEAEs, incidence (Safety population): < 0.2%
- Patients with basophils PCS high >1% (Safety population): 47.0%
- Patients with treatment-emergent total bilirubin >ULN (Safety population): 7.5%
- TEAE blood glucose increased, patients (Safety population): 2.6%
- TEAE hyperglycemia, patients (Safety population): 1.7%
- TEAE hypoglycemia, patients (Safety population): 1.5%
- ALT, mean change from baseline (Visit 3, Safety population): 0.39 U/L
- AST, mean change from baseline (Visit 3, Safety population): 0.24 U/L
- Hemoglobin, mean change from baseline (Visit 3, Safety population): 0.17 g/L
- Platelet Count, mean change from baseline (Visit 3, Safety population): -2.36e+09 L⁻¹
- ALT, mean change from baseline (Visit 4, Safety population): −0.28 U/L
- AST, mean change from baseline (Visit 4, Safety population): 0.03 U/L
- Hemoglobin, mean change from baseline (Visit 4, Safety population): 0.85 g/L
- Platelet Count, mean change from baseline (Visit 4, Safety population): -4.85e+09 L⁻¹
- ALT, mean change from baseline (Visit 5, Safety population): −1.27 U/L
- AST, mean change from baseline (Visit 5, Safety population): −0.83 U/L
- Hemoglobin, mean change from baseline (Visit 5, Safety population): 1.39 g/L
- Platelet Count, mean change from baseline (Visit 5, Safety population): -1.05e+10 L⁻¹
- ALT, mean change from baseline (Visit 6, Safety population): −1.66 U/L
- AST, mean change from baseline (Visit 6, Safety population): −1.10 U/L
- Hemoglobin, mean change from baseline (Visit 6, Safety population): 0.92 g/L
- Platelet Count, mean change from baseline (Visit 6, Safety population): -1.368e+10 L⁻¹
- ALT, mean change from baseline (Visit 7, Safety population): −2.80 U/L
- AST, mean change from baseline (Visit 7, Safety population): −1.56 U/L
- Hemoglobin, mean change from baseline (Visit 7, Safety population): 0.64 g/L
- Platelet Count, mean change from baseline (Visit 7, Safety population): -1.73e+10 L⁻¹
- Platelet count, greatest mean decrease from baseline excluding Visit 9 (Visit 8): 1.85e+10 L⁻¹
- ALT, mean change from baseline (Visit 8, Safety population): −3.42 U/L
- AST, mean change from baseline (Visit 8, Safety population): −1.66 U/L
- Hemoglobin, mean change from baseline (Visit 8, Safety population): -0.33 g/L
- Platelet Count, mean change from baseline (Visit 8, Safety population): -1.854e+10 L⁻¹
- ALT, mean change from baseline [2]: −1.25 U/L
- AST, mean change from baseline [2]: 0.25 U/L
- Hemoglobin, mean change from baseline [2]: -4.13 g/L
- Platelet Count, mean change from baseline [2]: -3.288e+10 L⁻¹
- Hemoglobin, greatest mean change from baseline [3]: -4.1 g/L
- Platelet count, greatest mean decrease from baseline [3]: 3.29e+10 L⁻¹
- ALT or AST >3 × ULN and Total Bilirubin >2 × ULN, % patients [4]: (0.0) %
- ALT or AST >3 × ULN and Total Bilirubin >2 × ULN, n patients [4]: 1
- ALT or AST >3 × ULN, % patients [4]: (1.5) %
- ALT or AST >3 × ULN, Total Bilirubin >2 × ULN, and ALP ≤2 × ULN, % patients [4]: (0.0) %
- ALT or AST >3 × ULN, Total Bilirubin >2 × ULN, and ALP ≤2 × ULN, n patients [4]: 1
- ALT or AST >3 × ULN, n patients [4]: 61
- PCS High >3 × ULN (AST) and >2 × ULN (Total Bilirubin), % patients [4]: (0.0) %
- PCS High >3 × ULN (AST) and >2 × ULN (Total Bilirubin), n patients [4]: 1
- Treatment-emergent AST >3 × ULN, % patients [4]: (0.9) %
- Treatment-emergent AST >3 × ULN, n patients [4]: 36
- Treatment-emergent AST >ULN, % patients [4]: (23.4) %
- Treatment-emergent AST >ULN, n patients [4]: 932
- PCS High >3 × ULN (ALT) and >2 × ULN (Total Bilirubin), % patients [5]: (0.0) %
- PCS High >3 × ULN (ALT) and >2 × ULN (Total Bilirubin), n patients [5]: 1
- Treatment-emergent ALP >2 × ULN, % patients [5]: (0.5) %
- Treatment-emergent ALP >2 × ULN, n patients [5]: 18
- Treatment-emergent ALP >ULN, % patients [5]: (7.7) %
- Treatment-emergent ALP >ULN, n patients [5]: 308
- Treatment-emergent ALT >3 × ULN, % patients [5]: (1.1) %
- Treatment-emergent ALT >3 × ULN, n patients [5]: 44
- Treatment-emergent ALT >ULN, % patients [5]: (32.9) %
- Treatment-emergent ALT >ULN, n patients [5]: 1308
- Treatment-emergent Total Bilirubin >2 × ULN, % patients [5]: (0.5) %
- Treatment-emergent Total Bilirubin >2 × ULN, n patients [5]: 21
- Treatment-emergent Total Bilirubin >ULN, % patients [5]: (7.5) %
- Treatment-emergent Total Bilirubin >ULN, n patients [5]: 297
- Hemoglobin, greatest mean change from baseline excluding Visit 9 (final visit): -1.1 g/L
